In patent publication US9757439B2, “Peptide vaccine comprising mutant RAS peptide and chemotherapeutic agent” (priority 2014, dated 2017):

Key:
[1] = test system: DC vaccine-induced T-cell proliferation; conditions: concomitant administration of gemcitabine and the DC vaccine; cited from earlier work
[2] = test system: resectable pancreatic cancer; conditions: postoperative gemcitabine versus no gemcitabine; cited from earlier work
[3] = test system: resected pancreatic cancer; conditions: in vivo

## Nc1ccn([C@@H]2O[C@H](CO)[C@@H](O)C2(F)F)c(=O)n1 [gemcitabine, 4-amino-1-(2-deoxy-2,2-difluoro-β-D-erythro-pentofuranosyl)pyrimidin-2(1H)-on]
[1]
  vaccine-induced immune response: significantly impaired
[2]
  development of recurrent disease after complete resection: significantly delayed
[3]; human, 6 four-week cycles
  principal adverse event related to gemcitabine: grade 3/4 neutropenia
[3]
  serious adverse events considered related to gemcitabine: pulmonary infection and two episodes of fever
